Data as given in patent publication US5594001A, “Polycyclic systems, and derivatives thereof, as neurotransmitter release enhancers useful in the treatment of cognitive disorders” (The DuPont Merck Pharmaceutical Company, priority 1994, dated 1997).

Legend:
[1] = system: stimulus-induced acetylcholine release, slices from the parietal cortex; assay: Neurotransmitter (ACh) release assay, rat cortex slices, K+ stimulated; assay type: cell-based, rat (male Wistar); details: for EC50: Table III
Procedure: The neurotransmitter release activities of the compounds of this invention were determined using standard biochemical assay procedures for example, the neurotransmitter release assay as described below.
Neurotransmitter release assay.
The neurotransmitter (Ach) release activities of the compounds of this invention were determined by the assay as described by Nickolson, et al., Drug Development Research, (1990) 19: 285-300, a modification of the procedure described by Mulder, et al., Brain Res., (1974) 70: 372.
Male Wistar rats (Charies River) weighing 175-200 grams were used. Rats were decapitated and brains were dissected immediately. Slices (0.3 mm thick) from the parietal cortex were prepared (approximately 100 mg wet weight) and were incubated in 10 ml KrebsRinger medium (KR) containing NaCl (116 mM), KCl (3 mM), CaCl2 (1.3 mM), MgCl2 (1.2 mM), KH2 PO4 (1.2 mM), Na2 SO4 (1.2 mM), NaHCO3 (25.0 mM), and glucose (11.0 mM), to which was added 10 uCi ^3 H-choline (specific activity approximately 35 Ci/mM; NEN) and […] unlabeled choline to give a final concentration of one micromole. The brain preparations were incubated for 30 min. at 37° C. under a steady flow of 95% O2 /5% CO2. Under these conditions, part of the radioactive choline taken up by the preparation was converted into radioactive acetylcholine (ACh) by the cholinergic nerve endings stored in synaptic vesicles, and released upon depolarization by high potassium ion (K+) containing media.
After labelling of the ACh stores, the slices were washed three times with non-radioactive KR medium and transferred to a superfusion apparatus to measure the drug effects on ACh release. The superfusion apparatus consisted of 10 thermostated glass columns of 5 mm diameter that were provided with GF/F glass fiber filters to support the slices (approximately 10 mg tissue/column). Superfusion was carried out in KR-medium (0.3 ml/min.) containing […] hemicholine-3 (HC-3). The HC-3 prevents the reuptake of choline formed during the superfusion from phospholipids and released ACh, which would be converted into unlabeled ACh and released in preference to the preformed labeled ACh. The medium was delivered by a 25-channel peristaltic pump (Ismatec by Brinkman) and warmed to 37° C. in a thermostated stainless steel coil before entering the superfusion column. Each column was provided with a 4-way slider valve (Beckmann instruments) which allowed rapid change of low to high K+/KR-medium, and with two 10-channel 3-way valves that were used to change from drug-free to drug-containing low and high K+/KR-medium. After 15 min. of washout of non-specifically bound radioactivity, collection of 4 min. fractions was initiated. After three 4 min. collections, the original medium was changed to a KR-medium in which the KCl concentration had been increased to 25 mM (high K+ medium) (S1). Depolarization-induced stimulation of release by high K+/KR-medium lasted for 4 min. Drug free low and high K+/KR-media were then substituted by drug- and vehicle-containing low- and high-K+/KR-medium, and superfusion was continued for three 4 min. collections with low K+/KR-medium, one 4 min. collection with high K+/KR-medium (s2), and two 4 min. collections with low K+/KR-medium.
Drug was added to the media by 100-fold dilutions of appropriate concentrations of the drug (in 0.9% saline) with either low- or high-K+/KR-medium. For comparative purposes, linopirdine was also run.
All superfusion fractions were collected in liquid scintillation counting vials. After superfusion, the slices were removed from the superfusion columns and extracted with 1.0 ml of 0.1N HCl. Liquiscint (NEN) counting fluid (12 ml) was added to superfusion fractions and extracts, and the samples were counted in a Packard Tricarb Liquid Scintillation Counter. No corrections were made for quenching. […]

[2] = system: ACh level in the rat hippocampus; assay: Microdialysis, ACh levels in the rat hippocampus in vivo; design: species or system rat (male Wistar); details: for AUC, Area % under the curve / Peak, maximal % increase of ACh release over baseline / time of Peak after administration / Duration, minutes of release above statistical significance: Table IV
Procedure: Male Wistar Rats are anaesthetized and guide cannulas stereotaxically implanted into the brain at the level of the dorsal hippocampus. Following a minimum recovery period of 72 h, dialysis probes (0.5 mm diameter, 4.0 mm long, from BAS) are inserted into the hippocampus through the guide cannulas. The probes are perfused at a rate of 2 μl/min with artificial cerebrospinal fluid containing 100 μM physostigmine sulfate (a cholinesterase inhibitor). Rats are allowed to acclimate for 2 hours prior to sample collection. Dialysate samples are collected every 20 min (40 μl) and immediately injected onto a high performance liquid chromatograph equipped for electrochemical detection (HPLC-EC) of acetylcholine (ACh). Following collection of 3 baseline samples, drugs or vehicle control are administered in 0.01 ml/g body weight and dialysate samples are collected for an additional 3 h. The ACh peak heights of the 3 samples prior to drug administration are averaged together to determine baseline ACh levels. ACh peak heights post drug administration are measured and used to determine percent change over baseline ACh levels. At the end of experiments, probe placement is verified histologically.
ACh is separated by reverse phase chromatography (Hamilton PRP-1 column 150×4.5 mm) and converted to acetate, betaine and hydrogen peroxide on an immobilized enzyme reactor column (BAS). Hydrogen peroxide is then detected electrochemically. Mobile phase for the chromatography consists of 0.2M Na2 HPO4, 0.1 mM EDTA, 0.5 mM SOS, 0.9 mM TMA.Cl, with pH adjusted to 8.0 with phosphoric acid and […] Kathon CG (ESA) added to each liter of mobile phase to retard bacterial growth.
FIGS. 1 and 2 show the effects of fluorine substitution to the pendant groups of the anthrone and azafluorene core series on the ability of compounds to increase the level of ACh in the rat hippocampus in vivo. All compounds were tested at 5 mg/kg except Ex. No 64 which was administered at 1 mg/kg. […] This was observed even though the compound was administered by a route (i.p.) which should lead to greater bioavailability than the oral route. Example 68 of the present invention, the bis-fluorinated analog of Example 611 or U.S. Pat. No. 5,173,489, on the other hand, led to a 2-fold increase in ACh levels which was maintained for over 1 hour (FIG. 1). The anthrone compound Ex. No. 440 of U.S. Pat. No. 5,173,489, at 5 mg/kg, led to a peak ACh level of 72% over baseline (FIG. 2). Ex. No. 64 of the present invention, which is the bis-fluoro analog of Ex. No. 440 of U.S. Pat. No. 5,173,489, at 1 mg/kg, led to a delayed increase in ACh levels reaching a peak of over 100% above baseline (FIG. 2). In contrast to the observed effects of Example 440 of U.S. Pat. No. 5,173,489, the increase in ACh level after administration of Example 64 of the present invention was maintained for the entire duration of testing (3 hours).

[3] = 5 mg/kg, vehicle water, NSP = no significant points
[4] = 1 mg/kg, vehicle methocel, NSP = no significant points
[5] = 5 mg/kg, vehicle methocel, NSP = no significant points

SMILES | AUC, Area % under the curve ([2]; 5 mg/kg, vehicle water) [%] | Peak, maximal % increase of ACh release over baseline ([2]; 5 mg/kg, vehicle water) [%] | time of Peak after administration ([2]; 5 mg/kg, vehicle water) [min] | Duration, minutes of release above statistical significance [2, 3] | EC50 [1] [nM] | AUC, Area % under the curve ([2]; 1 mg/kg, vehicle methocel) [%] | Peak, maximal % increase of ACh release over baseline ([2]; 1 mg/kg, vehicle methocel) [%] | time of Peak after administration ([2]; 1 mg/kg, vehicle methocel) [min] | Duration, minutes of release above statistical significance [2, 4] | AUC, Area % under the curve ([2]; 5 mg/kg, vehicle methocel) [%] | Peak, maximal % increase of ACh release over baseline ([2]; 5 mg/kg, vehicle methocel) [%] | time of Peak after administration ([2]; 5 mg/kg, vehicle methocel) [min] | Duration, minutes of release above statistical significance [2, 5] | other results
Fc1cc(CC2(Cc3ccncc3)c3ccccc3-c3sccc32)ccn1 (centres unmarked) [Example 7, 2-Fluoro-4-[4-(4-pyridinylmethyl)-4H-indeno[1,2-B]thiophen-4-ylmethyl]-pyridine] | 235 ± 87 | 53 ± 19 | 180 | NSP |  |  |  |  |  |  |  |  |  | activation at 10 µM ([1]; Table II, 10 μM, % increase of drug-induced ACh release): 439%
Fc1cc(CC2(Cc3ccncc3)c3ccccc3-c3ncccc32)ccn1 (centres unmarked) [Example 62] | 160 ± 187 | 47 ± 32 | 40 | NSP | 300 |  |  |  |  |  |  |  |  | AUC, Area % under the curve ([2]; 10 mg/kg, vehicle water): 221 ± 85%; Duration, minutes of release above statistical significance ([2]; 10 mg/kg, vehicle water): > 40 min; Peak, maximal % increase of ACh release over baseline ([2]; 10 mg/kg, vehicle water): 52 ± 10%; time of Peak after administration ([2]; 10 mg/kg, vehicle water): 20 min
O=C1c2ccccc2C(Cc2ccnc(F)c2)(Cc2ccnc(F)c2)c2ccccc21 [Example 64, 10,10-Bis((2-fluoro-4-pyridinyl)methyl)-9(10H)-anthracenone] |  |  |  |  | 660 | 711 ± 158 | 115 ± 27 | 180 | > |  |  |  |  | peak ACh level above baseline ([2]; 1 mg/kg oral, FIG. 2, delayed increase): over 100%; time for which the increase in ACh level was maintained ([2]; 1 mg/kg oral, FIG. 2, entire duration of testing): ≥ 3 h; AUC, Area % under the curve ([2]; 0.5 mg/kg, vehicle methocel): 253 ± 156%; Peak, maximal % increase of ACh release over baseline ([2]; 0.5 mg/kg, vehicle methocel): 40 ± 21%; time of Peak after administration ([2]; 0.5 mg/kg, vehicle methocel): 40 min; Duration, minutes of release above statistical significance ([2]; 0.5 mg/kg, vehicle methocel, NSP = no significant points): NSP
Fc1cc(CC2(Cc3ccncc3)c3ccccc3Oc3ccccc32)ccn1 [Example 65, 9-((2-Fluoro-4-pyridinyl)methyl)-9-(4-pyridinylmethyl)-9H-xanthene] |  |  |  |  | 820 |  |  |  |  | 147 ± 69 | 40 ± 11 | 20 | 60 min | 
Fc1cc(CC2(Cc3ccnc(F)c3)c3ccccc3Oc3ncccc32)ccn1 [Example 67, 9,9-Bis((2-fluoro-4-pyridinyl)methyl)-4-azaxanthene] |  |  |  |  | 640 | 666 ± 212 | 123 ± 62 | 200 | > | 1423 ± 595 | 199 ± 80 | 160 | > | 
Fc1cc(CC2(Cc3ccnc(F)c3)c3ccccc3-c3ncccc32)ccn1 [Example 68, 5,5-Bis((2-fluoro-4-pyridinyl)methyl)-5H-indeno[1,2-b]pyridine] | 871 ± 272 | 121 ± 25 | 100 | 120 min | 760 | 304 ± 88 | 74 ± 29 | 100 | 120 min | 942 ± 324 | 201 ± 68 | 80 | > 80 min | increase in ACh levels ([2]; 5 mg/kg oral, FIG. 1): 2 fold; time for which the increase in ACh levels was maintained ([2]; 5 mg/kg oral, FIG. 1): over 1 hour; AUC, Area % under the curve ([2]; 2 mg/kg, vehicle water): 240 ± 82%; Peak, maximal % increase of ACh release over baseline ([2]; 2 mg/kg, vehicle water): 47 ± 12%; time of Peak after administration ([2]; 2 mg/kg, vehicle water): 40 min
Fc1cc(CC2(Cc3ccnc(F)c3)c3ccccc3-c3nccnc32)ccn1 [Example 80, 9,9-Bis((2-fluoro-4-pyridinyl)methyl)-9H-indeno-[1,2-b]pyrazine] |  |  |  |  | 2330 |  |  |  |  |  |  |  |  | 
Nc1cccc2c1C(Cc1ccnc(F)c1)(Cc1ccnc(F)c1)c1ccccc1-2 [Example 96, 9,9-Bis((2-fluoro-4-pyridinyl)methyl)-9H-fluoren-1-amine] |  |  |  |  | 570 |  |  |  |  |  |  |  |  | 
